Experiments:
Assay type in all cases: functional, cell-based
[1] = system: A549; test: Compound was tested for potency against human lung A549 cells using sulforhodamine B assay.
[2] = system: L1210; test: Compound was tested for potency against multi drug resistant murine leukemia L1210 cells.; settings: Mus musculus
[3] = system: L1210; test: Compound was tested for potency against multidrug-resistant murine leukemia L1210 cells; settings: Mus musculus
[4] = system: RPMI-8226; test: Compound was tested for potency against human myeloma 8226 cells (40 fold resistant to doxorubicin).
[5] = system: RPMI-8226; test: Compound was tested for potency against human myeloma 8226 cells using MTT assay method.
[6] = system: SW480; test: Compound was tested for potency against human colon carcinoma SW 480 cells in a sulforhodamine B assay.
[7] = system: WiDr; test: Compound was tested for potency against human colon carcinoma WiDr cells in a sulforhodamine B assay.
[8] = system: A549; test: Compound was tested for potency against human lung A549 cells using sulforhodamine B assay; UA=Potency was so low that the IC50 was unachievable.
[9] = system: SW480; test: Compound was tested for potency against human colon carcinoma SW 480 cells in a sulforhodamine B assay; UA=Potency was so low that the IC50 was unachievable.

IC50 [1] [µM] | IC50 [2] [µM] | IC50 [3] [µM] | IC50 [4] [µM] | IC50 [5] [µM] | IC50 [6] [µM] | IC50 [7] [µM] | IC50 [8] | IC50 [9] | Structure (SMILES)
99 | 140 | 44 | > 10 | > 10 | 44 | 26 | – | – | CN(C)CCNC(=O)c1c2ccccc2c(C(=O)NCCN(C)C)c2ccccc12
5 | 3.6 | 3.3 | 3 | 3 | 5 | 4 | – | – | CN(C)CCNCc1c2ccccc2c(CNCCN(C)C)c2ccccc12
0.71 | 29 | 4.2 | 5 | 3.3 | 3.2 | 1.4 | – | – | CN(C)CCNC(=O)c1ccc(C(=O)NCCN(C)C)c2cc3ccccc3cc12
– | 73 | 63 | 5 | > 10 | – | 4.5 | Unachievable | Unachievable | CN(C)CCNC(=O)c1ccc(C(=O)NCCN(C)C)c2c1C(=O)c1ccccc1C2=O
91 | 188 | 52 | 4 | 12 | – | 15 | – | Unachievable | CN(C)CCNCc1ccc(CBr)c2cc3ccccc3cc12
5 | 13 | 2.6 | 6.7 | 5.6 | 0.72 | 1.6 | – | – | C(=N\NC1=NCCN1)/c1ccc(/C=N/NC2=NCCN2)c2cc3ccccc3cc12
8.1 | 8.3 | 2.8 | 4 | 7 | 19 | 17 | – | – | CN(C)CCNCc1ccc(CNCCN(C)C)c2cc3ccccc3cc12

Structure (SMILES) | IC50 [1] [µM] | IC50 [2] [µM] | IC50 [3] [µM] | IC50 [4] [µM] | IC50 [5] [µM] | IC50 [6] [µM] | IC50 [7] [µM] | IC50 [8] | IC50 [9]
C(=N\NC1=NCCN1)/c1c2ccccc2c(/C=N/NC2=NCCN2)c2ccccc12 [BISANTRENE] | 0.017 | 3.2 | 0.049 | 9.1 | 0.018 | 0.09 | 0.79 | – | –

From ChEMBL document CHEMBL1130230, “1,4-disubstituted anthracene antitumor agents” (J Med Chem, 1997)
